Measured values as given in publication PMC8012331, “Drug-induced hepatic steatosis in absence of severe mitochondrial dysfunction in HepaRG cells: proof of multiple mechanism-based toxicity” (Cell Biology and Toxicology, 2020).
Values joined by “and” are separate entries in the source; they are usually repeats but may differ in a detail not shown here. Equal entries are not always repeated. Where two headings read alike, the source gives them in different places.

How the values were obtained:
[1] = tested on: de novo lipogenesis (DNL); assay: DNL from [2-14C]acetic acid in HepaRG cells; format: cell-based, human; details: 4 days, vs control
Method: (§1) Experiments were carried out on passages 9 to 16. […] DPEN was dissolved in water.
DNL was assessed by measuring newly synthesized radiolabeled lipids from [2-^14C]acetic acid, using a protocol adapted from Byrne et al. ([2014]). Briefly, culture medium was removed and cells were washed with warm PBS. Next, cells were incubated for 3 h with phenol red-free William’s E medium containing 1% fatty acid-free BSA, [2-^14C]acetic acid (1850 Bq per well, corresponding to 19.4 pM) and 50 μM cold acetic acid. Medium was then gently removed and cells were washed with warm PBS before adding a mix of hexane/isopropanol (3:2; v/v). Cell culture plates were sealed and incubated for 1 h at room temperature for lipid extraction. After transfer of the plate content in 200-μL microtubes, hexane and PBS were added to have a hexane/isopropanol/PBS ratio of 6:2:3 (v/v/v). Microtubes were then centrifuged at 1000×g for 5 min and radiolabeled lipids were counted in the upper phase with a Tri-Carb 4910TR liquid scintillation counter (PerkinElmer). Results were normalized to total protein content and expressed in comparison to control cells.

[2] = patients, ref given per drug, cited from earlier work; for Cmax: read-out: Maximum plasma concentration (Cmax) in patients
[3] = treated patients, ref Schulz M et al., Crit Care 2012 ;16(4):R136, cited from earlier work
HepaRG cells [4] = assay: Neutral lipids with Nile red in HepaRG cells; details: 4 days
Method: (§2) Briefly, HepaRG cells were seeded in 96-well plates at a density of 2.6 × 10^4 cells/cm^2 and were first incubated in William’s E medium supplemented with 10% FBS (50% FBS from Eurobio and 50% FBS from GE Healthcare), 100 U/mL penicillin, 100 μg/mL streptomycin, 2 mM glutamine, 5 μg/mL insulin, and 50 μM hydrocortisone hemisuccinate. […] During this 1-month period, the culture medium was renewed three times a week. […] HepaRG cells were next cultured in the same FBS/DMSO conditions and incubated for 4 days with each drug at different concentrations. Culture medium was renewed every day and all investigations were performed after 96 h (i.e., 24 h after the fourth treatment). These investigations were mostly performed in 96-well plates except for western blot analysis, for which 6-well plates were used. Experiments were carried out on passages 9 to 16. All drugs (except DPEN), etomoxir, lomitapide, tunicamycin, thapsigargin, and TUDCA were dissolved in DMSO. DPEN was dissolved in water.
(§3) Cells were then incubated with PBS containing 0.1 μg/mL Nile red for 30 min and washed once. […] For each well, four pictures were taken at a magnification of × 20 and analyzed with Columbus software (PerkinElmer) for quantification. These pictures were always taken in four different areas around the center of each well, and these areas were the same from one well to another, as programmed by the Columbus software. This software was also designed to count only living cells after exclusion of dying cells harboring nuclei with abnormal shape or altered Hoechst intensity. […] Neutral lipids were then normalized per number of nuclei and expressed relative to control cells. Examples of images used for neutral lipid quantification are shown in Supplementary Fig. 2.

HepaRG cells [5] = assay: Cellular ATP level (CellTiter-Glo) in HepaRG cells; format: cell-based, human; details: 4 days, vs controls
Method: Cellular ATP level was measured using the CellTiter-Glo® Luminescent Cell Viability assay purchased from Promega (Charbonnières, France), according to the manufacturer’s instructions. Briefly, control and treated HepaRG cells were first washed with warm PBS and kept for 30 min at room temperature in phenol red-free William’s E medium. Cells were next incubated with the CellTiter-Glo® reagent for 10 min at room temperature. Cells were then transferred in opaque-walled multiwell plates and the luminescent signal was quantified using a POLARstar Omega microplate reader (BMG Labtech, Ortenberg, Germany). Results were expressed in comparison to control cells.

[6] = Maximum plasma concentration (Cmax) in patients; format: in vivo, human; details: worked out from cited Cmax in patients
apoC3 secretion = assay: apoC3 level in culture medium (HTRF), HepaRG cells; format: cell-based, human; details: 4 days, culture medium, vs control
Method: as §2
Apolipoprotein C3 (apoC3) level was measured using the Human Apolipoprotein C3 kit from Cisbio Bioassays (Codolet, France), according to the manufacturer’s instructions. Briefly, 10 μL of supernatants was incubated with two different specific anti-human apoC3 antibodies, one donor and one acceptor. The detection principle of apoC3 is based on HTRF® (Homogeneous Time Resolved Fluorescence), a time-resolved FRET (Förster Resonance Energy Transfer) technology. After 2 h of incubation, light emission was measured with the Infinite F Nano+ microplate reader (Tecan, Männedorf, Switzerland). ApoC3 level was calculated utilizing standard curve, based on the ratio of A665 nm/A615 nm, and normalized to the total cellular protein content. Results were expressed in comparison to control cells.

apoB secretion = assay: apoB level in culture medium (ELISA), HepaRG cells; format: cell-based, human; details: 4 days, culture medium, vs control
Method: as §1
Twenty-four hours after the last treatment, cell supernatants were removed and stored at − 80 °C until use for apolipoprotein measurement. ApoB level was measured using the Human Apolipoprotein B ELISA^pro kit from Mabtech (Nacka Strand, Sweden), according to the manufacturer’s instructions. Briefly, 50 μL of samples were diluted 2× in Apo ELISA buffer before a 2-h incubation in the precoated strip plates provided in the kit. The plates were washed and incubated 1 h with the biotinylated monoclonal anti-human apoB (LDL-11-biotin) antibody. The plates were then washed and incubated 1 h with a streptavidin–horseradish peroxidase conjugated antibody. After another washing, 3,3′,5,5′-tetramethylbenzidine (TMB) was used as substrate for 15 min before adding a stop solution. Absorbance at 450 nm was then measured using a POLARstar Omega microplate reader (BMG Labtech, Ortenberg). ApoB level was calculated utilizing a four-parameter standard curve, and normalized to the total cellular protein content and expressed in comparison to control cells.

ERN1 (IRE1α) = assay: RT-qPCR ERN1 mRNA in HepaRG cells; format: cell-based, human; details: 4 days, vs control
Method: Total RNA was extracted with the Nucleospin RNA isolation system purchased from Macherey-Nagel (Düren, Germany), which included a DNase treatment step. Quantification of isolated RNAs was assessed using a Nanodrop 1000 (Thermo Fisher Scientific, Waltham, MA). RNAs were reverse-transcribed into cDNAs using the High-Capacity cDNA Reverse Transcription Kit purchased from Applied Biosystems (Woolston, UK). Gene expression was assessed by real-time quantitative PCR analysis (RT-qPCR) using SYBR Green PCR Master Mix (Applied Biosystems) and a 384-well QuantStudio™ 7 Flex Real-Time PCR System (Thermo Fisher Scientific). Sequences of the primers used to measure gene expression are presented in Supplementary Table 3. Expression of GAPDH was chosen as reference and the 2^−ΔΔCt calculation method was used to express the relative expression of each selected gene.

[7] = tested on: primary human hepatocytes (PHH); assay: Neutral lipids with Nile red in primary human hepatocytes; format: cell-based; details: 4 days
Method: Primary human hepatocytes (PHH) were purchased from Biopredic International (Saint-Grégoire, France). Cells were seeded by the supplier in coated 96-well plates at a density of 5 × 10^4 cells/well. Upon receipt, culture medium was removed and replaced by William’s E medium supplemented as previously described for HepaRG cell differentiation, except for DMSO set at 1%. After 2–3 days, cells were treated as for HepaRG cells. For HepaRG cells and PHH, cells were always maintained in incubators at 37 °C with 5% CO2 and saturating humidity.
as §3

[8] = tested on: mitochondrial fatty acid oxidation (mtFAO); assay: mtFAO with [U-14C]palmitic acid in HepaRG cells; format: cell-based, human; details: 4 days, vs control
Method: as §1
Results were normalized to total protein content determined using the Pierce BCA assay kit from Thermo Fischer Scientific (Waltham, MA). Results were expressed in comparison to control cells.

[9] = selected concentrations (ATP loss < 30%, not above 100 × Cmax), vs control

Row | Compound | Concentration corresponding to 100xCmax [6] [µM] | Effect on DNL [1] | Maximum plasma concentration (Cmax) in patients [2] [ng/mL] | Cmax [2] [µM] | Accumulation of neutral lipids (steatosis) (HepaRG cells [4]; [9]) | Loss of cellular ATP relative to the maximum concentration selected for the study (HepaRG cells [5]) | Effect on apoC3 secretion (apoC3 secretion) | Effect on apoB secretion (apoB secretion) | Effect on mtFAO [8] | also measured
1 | CC(C)(S)[C@@H](N)C(=O)O [DPEN, D-penicillamine] | 2500 | – | ≤ 3760 | ≤ 25 | did not induce steatosis | 2500 µM (slight loss of cellular ATP for this concentration, as shown in Supp. fig 1) | – | – | – | Therapeutic blood (or plasma) concentration in patients ([3]; listed as D-penicillamine (DPEN)): 1.7 - 5.6 mg/L and 11.4 - 37.6 µM; Accumulation of neutral lipids (steatosis) (HepaRG cells [4]; concentrations above 100 × Cmax (100 μM NIF, 5000 μM DPEN)): significant accumulation of neutral lipids
2 | CC(C)(C)NC(=O)[C@@H]1CN(Cc2cccnc2)CCN1C[C@@H](O)C[C@@H](Cc1ccccc1)C(=O)N[C@H]1c2ccccc2C[C@H]1O [INDI, indinavir] | 1300 | curb this metabolic pathway | ≤ 8000 | ≤ 13 | significant accumulation of neutral lipids | – | reduced the secretion | reduced the secretion | – | –
3 | Cn1cc[nH]c1=S [METHI, methimazole] | – | – | ≤ 1500 | ≤ 13 | did not induce steatosis | – | – | – | – | Therapeutic blood (or plasma) concentration in patients ([3]; listed as Methimazole (METHI)): 0.5 - 2.5 mg/L and 4.4 - 22 µM
4 | COC(=O)C1=C(C)NC(C)=C(C(=O)OC)C1c1ccccc1[N+](=O)[O-] [NIF, nifedipine] | – | – | – | – | – | – | – | – | – | Therapeutic blood (or plasma) concentration in patients ([3]; listed as Nifedipine (NIF)): 0.025 - 0.15 mg/L and 0.07 - 0.43 µM
5 | CCOC(=O)[C@@]1(CCCCCCOc2ccc(Cl)cc2)CO1 [etomoxir, (+)-etomoxir] | – | – | – | – | – | – | – | – | blocked | –
6 | O=C(NC1CCN(CCCCC2(C(=O)NCC(F)(F)F)c3ccccc3-c3ccccc32)CC1)c1ccccc1-c1ccc(C(F)(F)F)cc1 [lomitapide] | – | – | – | – | – | – | – | inhibited | – | –

The next lines start with results.

Row | Concentration corresponding to 100xCmax [6] [µM] | Compound | Effect on DNL [1] | Maximum plasma concentration (Cmax) in patients [2] [ng/mL] | Cmax [2] [µM] | Accumulation of neutral lipids (steatosis) (HepaRG cells [4]; [9]) | Loss of cellular ATP relative to the maximum concentration selected for the study (HepaRG cells [5]) | Effect on apoC3 secretion (apoC3 secretion) | Effect on apoB secretion (apoB secretion) | Effect on mtFAO [8] | also measured
7 | 42000 | O=c1[nH]cc(F)c(=O)[nH]1 [5FU, 5-fluorouracil] | curb this metabolic pathway | ≤ 55000 | ≤ 420 | significant accumulation of neutral lipids | 100 µM (loss of cellular ATP above 30% of the controls for higher concentrations, as shown in Supp. fig 1) | reduced the secretion | reduced the secretion | significantly enhance mtFAO | Therapeutic blood (or plasma) concentration in patients ([3]; listed as 5-Fluorouracil (5FU)): 0.05 - 0.3 mg/L and 0.38 - 2.3 µM; ERN1 (IRE1α) mRNA level (ERN1 (IRE1α)): enhanced IRE1α mRNA level; Steatosis in PHH batches (six batches tested) [7]: induced steatosis in only one PHH batch
8 | 1500 | Oc1ncnc2[nH]ncc12 [ALLO, allopurinol] | curb this metabolic pathway | ≤ 2050 | ≤ 15 | significant accumulation of neutral lipids | 750 µM (loss of cellular ATP above 30% of the controls for higher concentrations, as shown in Supp. fig 1) | reduced the secretion | reduced the secretion | significantly enhance mtFAO | Therapeutic blood (or plasma) concentration in patients ([3]; listed as Allopurinol (ALLO)): 2 - 19 mg/L and 15 - 140 µM; ERN1 (IRE1α) mRNA level (ERN1 (IRE1α)): enhanced IRE1α mRNA level; Steatosis in PHH batches (six batches tested) [7]: accumulation of neutral lipids in five PHH batches
